The record followed here is article PMC3673989, “Effect of Single Amino Acid Substitution Observed in Cancer on Pim-1 Kinase Thermodynamic Stability and Structure” (PLoS ONE, 2013).

The target of one test is T1, Pim-1 E124Q (Homo sapiens, UniProt P11309, E124Q).
T1 construct: hexahistidine tag (TEV-cleavable) (cleaved yes); made in house; host or cells: E. coli BL21(DE3)
As to the kind of experiment: Inhibitor binding by temperature shift assay (SYPRO Orange). Conditions: Pim-1 E124Q 2 µM, compound 10 µM. Here is the method:
(§1) Thermal melting experiments were carried out using an Mx3005p Real Time PCR machine (Stratagene). Proteins were buffered in 10 mM HEPES pH 7.5, 500 mM NaCl and assayed in a 96-well plate at a final concentration of 2 µM in 20 µl volume. Compounds were added at a final concentration of 10 µM. SYPRO Orange (Molecular Probes) was added as a fluorescence probe at a dilution of 1∶1000. […] Data was analysed as previously described.

In the next test the target is T2, Pim-1 E135K (Homo sapiens, UniProt P11309, E135K).
T2 construct: hexahistidine tag (TEV-cleavable) (cleaved yes); made in house; host or cells: E. coli BL21(DE3)
T2 sequence (P11309 whole entry E135K): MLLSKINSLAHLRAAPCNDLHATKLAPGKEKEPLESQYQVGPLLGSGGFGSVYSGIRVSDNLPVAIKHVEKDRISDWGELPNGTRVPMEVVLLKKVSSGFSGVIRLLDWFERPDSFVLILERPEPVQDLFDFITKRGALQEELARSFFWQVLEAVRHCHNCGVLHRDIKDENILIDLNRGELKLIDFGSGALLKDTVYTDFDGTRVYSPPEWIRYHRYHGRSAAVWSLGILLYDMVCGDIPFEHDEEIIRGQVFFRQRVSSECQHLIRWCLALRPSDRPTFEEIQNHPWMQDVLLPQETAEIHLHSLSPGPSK
Described as above. Conditions: Pim-1 E135K 2 µM, compound 10 µM. The method, then: as §1

The target of the next test is T3, Pim-1 E142D (Homo sapiens, UniProt P11309, E142D).
T3 construct: hexahistidine tag (TEV-cleavable) (cleaved yes); made in house; host or cells: E. coli BL21(DE3)
T3 sequence (P11309 whole entry E142D): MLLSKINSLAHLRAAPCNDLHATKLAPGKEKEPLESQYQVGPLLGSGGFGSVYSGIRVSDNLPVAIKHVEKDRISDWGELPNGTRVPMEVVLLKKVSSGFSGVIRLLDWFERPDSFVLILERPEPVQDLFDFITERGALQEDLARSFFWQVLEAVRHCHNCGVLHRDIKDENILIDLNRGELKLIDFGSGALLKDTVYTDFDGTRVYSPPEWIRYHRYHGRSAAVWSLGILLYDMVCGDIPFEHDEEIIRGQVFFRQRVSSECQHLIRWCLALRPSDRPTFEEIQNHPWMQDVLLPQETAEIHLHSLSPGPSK
The test is described as above. Conditions: Pim-1 E142D 2 µM, compound 10 µM. Here is the method: as §1

The target in test [1] is T4, Pim-1 Y53H (Homo sapiens, UniProt P11309, Y53H).
T4 construct: hexahistidine tag (TEV-cleavable) (cleaved yes); made in house; host or cells: E. coli BL21(DE3)
T4 sequence (P11309 whole entry Y53H): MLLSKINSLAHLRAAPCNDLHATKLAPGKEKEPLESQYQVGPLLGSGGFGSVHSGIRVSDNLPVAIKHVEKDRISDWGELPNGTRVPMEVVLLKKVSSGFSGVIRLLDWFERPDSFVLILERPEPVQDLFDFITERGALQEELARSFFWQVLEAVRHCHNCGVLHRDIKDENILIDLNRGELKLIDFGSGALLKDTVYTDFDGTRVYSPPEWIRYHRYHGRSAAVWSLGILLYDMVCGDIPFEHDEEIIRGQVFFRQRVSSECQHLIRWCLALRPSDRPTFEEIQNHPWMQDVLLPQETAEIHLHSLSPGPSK
Described as above. Conditions: Pim-1 Y53H 2 µM, compound 10 µM. Here is the method:
as §1

In test [2] the target is T5, Pim-1 wild type (Homo sapiens, UniProt P11309).
T5 construct: hexahistidine tag (TEV-cleavable) (cleaved yes); made in house; host or cells: E. coli BL21(DE3)
T5 sequence (P11309 whole entry): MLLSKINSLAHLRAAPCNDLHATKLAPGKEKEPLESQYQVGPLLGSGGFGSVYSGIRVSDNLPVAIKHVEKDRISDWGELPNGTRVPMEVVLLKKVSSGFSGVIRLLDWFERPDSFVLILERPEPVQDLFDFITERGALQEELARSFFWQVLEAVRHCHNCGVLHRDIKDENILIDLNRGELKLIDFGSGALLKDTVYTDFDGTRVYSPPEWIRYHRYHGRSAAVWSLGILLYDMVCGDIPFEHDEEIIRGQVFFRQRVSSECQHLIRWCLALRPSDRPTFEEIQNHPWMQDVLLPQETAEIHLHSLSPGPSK
The test is described as above. Conditions: Pim-1 wild type 2 µM, compound 10 µM. Here is the method: as §1

Test [3] concerns the target T4, Pim-1 Y53H. Nature of the test: Caliper mobility shift kinase assay. It counts as biochemical. Conditions: Y53H relative to Pim-1 wild type. Here is the method:
(§2) Phosphorylation reaction was monitored using a coupled-enzyme assay in which ADP production is coupled to NADH oxidation by pyruvate kinase and lactate dehydrogenase. […] In the Caliper mobility shift assays kinase reactions were analyzed by microfluidic capillary electrophoresis. The final assay buffer was 50 mM HEPES, pH 7.5, 1 mM DTT, 0.02% Tween 20, 0.02% BSA, 10 mM beta-glycerophosphate, 0.01 mM Na3VO4, 0.6% DMSO, 8 mM MgCl2, 2 µM peptide and 0.2 nM kinase. The reactions were started by addition of substrate mix consisting of ATP and peptide substrate to kinase and inhibitor solution. ATP concentrations were adjusted to the Kmvalues of the specific Pim enzyme. After incubation for 60 min at 30°C reactions were terminated with 100 mM HEPES pH 7.5, 5% DMSO, 0.1% coating reagent (Caliper Lifescience) 10 mM EDTA pH 8.0, 0.015% Brij35. Levels of substrate and product were quantified by measuring the laser-induced fluorescence intensities of fluorescein labels of the peptide.

In a further test the target is Pim-1 variants. Nature of the test: Caliper mobility shift kinase assay. It counts as biochemical, human. Conditions: exception K00487 and K00207a for Y53H. Here is the method: as §2
Test [4] deals with T5, Pim-1 wild type. It counts as biochemical. Conditions: ATP as substrate, wild type protein. Here is the method:
as §2

T1 sequence (P11309 whole entry E124Q): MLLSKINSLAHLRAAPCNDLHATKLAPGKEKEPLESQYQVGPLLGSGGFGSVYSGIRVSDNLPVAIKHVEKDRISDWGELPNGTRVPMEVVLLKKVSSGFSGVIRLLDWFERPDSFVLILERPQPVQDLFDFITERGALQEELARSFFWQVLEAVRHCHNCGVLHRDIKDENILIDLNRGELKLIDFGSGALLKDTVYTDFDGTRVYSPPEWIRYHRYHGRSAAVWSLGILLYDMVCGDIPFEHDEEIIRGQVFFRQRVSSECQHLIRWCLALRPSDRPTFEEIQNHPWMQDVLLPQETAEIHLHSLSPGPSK

In the case of `FC(F)(F)Oc1cccc(-c2cnc3ccc(NCC4CC4)nn23)c1` [K00520], the ΔTm was found to be 5.0 K at Pim-1 E124Q; 6.5 K on Pim-1 E135K; 6.4 K at Pim-1 E142D; 5.5 K at Pim-1 Y53H [1]; 6.8 K on Pim-1 wild type [2].
As to `CC(C)[C@@H](CO)Nc1ccc2ncc(-c3cccc(C(F)(F)F)c3)n2n1` [K00516], the ΔTm at Pim-1 E124Q is reported as 8.2 K; on Pim-1 E135K, 9.0 K; at Pim-1 E142D it was 7.7 K; at Pim-1 Y53H [1], 6.9 K; at Pim-1 wild type [2], 8.2 K.
For the compound `CCC(CO)Nc1ccc2ncc(-c3cccc(OC(F)(F)F)c3)n2n1` (centres unmarked) [K00487], the ΔTm on Pim-1 E124Q was 7.6 K; at Pim-1 E135K, 7.5 K; at Pim-1 E142D, 8.1 K; on Pim-1 Y53H [1], 7.0 K; on Pim-1 wild type [2], 7.7 K. The “fold increase of IC50 versus wild type” value at Pim-1 Y53H [3] is recorded as 1.8 fold. At Pim-1 variants, the “IC50 for Pim-1 variants compared with wild type” value is “closely similar”.
For `CC(C)[C@@H](CO)Nc1ccc2ncc(-c3cccc(Cl)c3)n2n1` [K00514], the ΔTm on Pim-1 E124Q was 6.1 K; at Pim-1 E135K, 7.5 K; on Pim-1 E142D, 6.2 K; at Pim-1 Y53H [1], 5.6 K; on Pim-1 wild type [2], 6.1 K.
With `CCN1CCC2(CC1)NC(=O)c1c(c3ccc(Cl)c(Cl)c3n1C)C2C#N` (centres unmarked) [K01786a], the ΔTm on Pim-1 E124Q worked out at 7.2 K; at Pim-1 E135K, 8.2 K; at Pim-1 E142D it was 8.6 K; on Pim-1 Y53H [1], 8.2 K; on Pim-1 wild type [2], 8.4 K.
As for `Clc1ccc(-c2cnc3ccc(NC4CCOCC4)nn23)cc1` [K00499], the ΔTm on Pim-1 E124Q came out at 5.6 K; at Pim-1 E135K, 6.0 K; at Pim-1 E142D it was 6.6 K; at Pim-1 Y53H [1], 5.9 K; at Pim-1 wild type [2], 5.5 K.
As for `Nc1ncnc2c1ncn2[C@@H]1O[C@H](COP(=O)(O)OP(=O)(O)OP(=O)(O)O)[C@@H](O)[C@H]1O` [ATP], the Km at Pim-1 wild type [4] was 205 µM.
Take `CC(C)[C@@H](CO)Nc1ccc2ncc(-c3cccc(OC(F)(F)F)c3)n2n1` [K00512]: the ΔTm came to 8.5 K on Pim-1 E124Q; 8.9 K on Pim-1 E135K; 8.8 K on Pim-1 E142D; 8.1 K at Pim-1 Y53H [1]; 8.4 K at Pim-1 wild type [2].
Taken in the same sequence, the figures for `COCCNc1ccc2ncc(-c3cccc(Cl)c3)n2n1` [K00478] were 4.9 K, 5.9 K, 4.8 K, 4.5 K and 6.0 K.
As for `Cn1c2c(c3ccc(Cl)c(Cl)c31)C(C#N)C1(CCOCC1)NC2=O` (centres unmarked) [K01741a], the ΔTm on Pim-1 E124Q was found to be 3.3 K; on Pim-1 E135K it was 5.2 K; on Pim-1 E142D it was 3.3 K; on Pim-1 Y53H [1] it was 3.3 K; at Pim-1 wild type [2] it was 5.1 K.
Regarding `CC(=O)c1cccc(-c2cnc3ccc(N[C@H](CO)C(C)C)nn23)c1` [K00518], the ΔTm on Pim-1 E124Q is on record as 4.3 K; on Pim-1 E135K it was 6.4 K; on Pim-1 E142D, 5.3 K; on Pim-1 Y53H [1], 4.6 K; at Pim-1 wild type [2] it was 5.6 K.

In general, Km refers to the concentration of substrate that gives half-maximal velocity.
